In ChEMBL document CHEMBL1201862, “PubChem BioAssay data set” (2004):
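Grown in 96-well plates, cells were treated for 48 hours with each compound at five concentrations. Insufficient inhibition: endpoint recorded as highest concentration tested. GI50 = concentration required for 50% inhibition of growth.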 Active and inactive are the calls of the source. Cut-off read from the data, not from the text of the source: active = GI50 up to about 1.1 µM and inactive = higher.

Key:
Test in all cases: NCI anticancer screen, dose series, 48 h
IGROV-1 = test system: IGROV-1
LXFL 529 = test system: LXFL 529
NCI-H226 = test system: NCI-H226
HCC 2998 = test system: HCC 2998
DMS-273 = test system: DMS-273
SK-MEL-2 = test system: SK-MEL-2
HOP-92 = test system: HOP-92
UO-31 = test system: UO-31
K562 = test system: K562
MOLT-4 = test system: MOLT-4
SR = test system: SR
SF-268 = test system: SF-268
SK-MEL-28 = test system: SK-MEL-28
DMS-114 = test system: DMS-114
CCRF-CEM = test system: CCRF-CEM
786-0 = test system: 786-0
SN12C = test system: SN12C
COLO 205 = test system: COLO 205
UACC-62 = test system: UACC-62
HL-60 = test system: HL-60
M14 = test system: M14
NCI-H522 = test system: NCI-H522
NCI-H23 = test system: NCI-H23
SNB-78 = test system: SNB-78
RPMI-8226 = test system: RPMI-8226
HOP-62 = test system: HOP-62
DLD-1 = test system: DLD-1
M19-MEL = test system: M19-MEL
CAKI-1 = test system: CAKI-1
SF-539 = test system: SF-539
OVCAR-4 = test system: OVCAR-4
SK-OV-3 = test system: SK-OV-3
SNB-75 = test system: SNB-75
XF498 = test system: XF498
Malme-3M = test system: Malme-3M
NCI-H460 = test system: NCI-H460
HCT-116 = test system: HCT-116
A498 = test system: A498
TK-10 = test system: TK-10
UACC-257 = test system: UACC-257
U-251 = test system: U-251
LOX IMVI = test system: LOX IMVI
OVCAR-5 = test system: OVCAR-5
SW-620 = test system: SW-620
HOP-18 = test system: HOP-18
ACHN = test system: ACHN
OVCAR-3 = test system: OVCAR-3
OVCAR-8 = test system: OVCAR-8
SK-MEL-5 = test system: SK-MEL-5
RXF 393 = test system: RXF 393
KM12 = test system: KM12
HCT-15 = test system: HCT-15
SF-295 = test system: SF-295
A549 = test system: A549
KM-20L2 = test system: KM-20L2
HT-29 = test system: HT-29
EKVX = test system: EKVX
SNB-19 = test system: SNB-19

Measured: GI50

Cc1[nH]c(=O)nc(N/N=C/c2ccc(O)cc2)c1C(=O)Nc1ccc(O)cc1
inactive: IGROV-1 > 100 µM | LXFL 529 > 100 µM | NCI-H226 > 100 µM | HCC 2998 > 100 µM | DMS-273 > 100 µM | SK-MEL-2 > 100 µM | HOP-92 > 100 µM | UO-31 > 100 µM | K562 > 100 µM | MOLT-4 > 100 µM | SR > 100 µM | SF-268 > 100 µM | SK-MEL-28 > 100 µM | DMS-114 > 100 µM | CCRF-CEM > 100 µM | 786-0 > 100 µM | SN12C > 100 µM | COLO 205 > 100 µM | UACC-62 > 100 µM | HL-60 > 100 µM | M14 > 100 µM | NCI-H522 > 100 µM | NCI-H23 > 100 µM | SNB-78 72.8 µM | RPMI-8226 > 100 µM | HOP-62 > 100 µM | DLD-1 > 100 µM | M19-MEL > 100 µM | CAKI-1 > 100 µM | SF-539 > 100 µM | OVCAR-4 > 100 µM | SK-OV-3 > 100 µM | SNB-75 > 100 µM | XF498 > 100 µM | Malme-3M > 100 µM | NCI-H460 > 100 µM | HCT-116 > 100 µM | A498 > 100 µM

CC(=O)Nc1ccc(-c2nnc(SCC(=O)Nc3ccc([N+](=O)[O-])cc3)o2)cc1
inactive: TK-10 14.6 µM | IGROV-1 11 µM | UACC-257 12.1 µM | LXFL 529 7.93 µM | NCI-H226 15.7 µM | DMS-273 10.6 µM | SK-MEL-2 14.3 µM | U-251 14.7 µM | LOX IMVI 5.15 µM | HOP-92 22.9 µM | UO-31 18.9 µM | OVCAR-5 19.8 µM | K562 36.4 µM | SW-620 16.2 µM | MOLT-4 12.2 µM | SR 3.18 µM | SF-268 14.1 µM | SK-MEL-28 14.3 µM | HOP-18 16.4 µM | DMS-114 3.3 µM | CCRF-CEM 12.6 µM | 786-0 11.3 µM | ACHN 15.4 µM | OVCAR-3 14.5 µM | SN12C 16.3 µM | OVCAR-8 14.6 µM | COLO 205 14.2 µM | SK-MEL-5 13.1 µM | UACC-62 9.84 µM | HL-60 > 100 µM | RXF 393 14.7 µM | M14 13.9 µM | NCI-H522 7.85 µM | NCI-H23 12.2 µM | SNB-78 16.1 µM | KM12 14.5 µM | RPMI-8226 24.7 µM | HOP-62 26.3 µM | DLD-1 11.9 µM | SF-295 14.1 µM | A549 17.5 µM | KM-20L2 14.4 µM | M19-MEL 13.5 µM | CAKI-1 14.3 µM | SF-539 24.3 µM | OVCAR-4 13.4 µM | SK-OV-3 17.8 µM | SNB-75 13.2 µM | Malme-3M 14 µM | HT-29 13.4 µM | NCI-H460 15.2 µM | HCT-116 12.5 µM
12.9 µM: HCT-15

CC(=O)NC(CCCCNC(=O)OCc1ccccc1)C(=O)NCc1ccccc1 (stereo unspecified)
> 100 µM: HCT-15
inactive: TK-10 > 100 µM | IGROV-1 > 100 µM | UACC-257 > 100 µM | LXFL 529 > 100 µM | NCI-H226 > 100 µM | HCC 2998 > 100 µM | DMS-273 > 100 µM | SK-MEL-2 > 100 µM | U-251 > 100 µM | LOX IMVI > 100 µM | HOP-92 > 100 µM | UO-31 > 100 µM | OVCAR-5 > 100 µM | K562 > 100 µM | SW-620 > 100 µM | MOLT-4 > 100 µM | SF-268 > 100 µM | SK-MEL-28 > 100 µM | DMS-114 > 100 µM | CCRF-CEM > 100 µM | 786-0 > 100 µM | ACHN > 100 µM | OVCAR-3 > 100 µM | SN12C > 100 µM | OVCAR-8 > 100 µM | COLO 205 > 100 µM | SK-MEL-5 > 100 µM | UACC-62 > 100 µM | RXF 393 > 100 µM | M14 > 100 µM | NCI-H522 > 100 µM | EKVX > 100 µM | NCI-H23 > 100 µM | SNB-78 88.9 µM | KM12 > 100 µM | SNB-19 > 100 µM | RPMI-8226 > 100 µM | HOP-62 > 100 µM | DLD-1 > 100 µM | SF-295 > 100 µM | A549 > 100 µM | KM-20L2 > 100 µM | M19-MEL > 100 µM | CAKI-1 > 100 µM | SF-539 > 100 µM | OVCAR-4 > 100 µM | SK-OV-3 > 100 µM | SNB-75 31.7 µM | XF498 > 100 µM | Malme-3M > 100 µM | HT-29 > 100 µM | NCI-H460 > 100 µM | HCT-116 > 100 µM | A498 > 100 µM

O=C(/C=C/c1ccccc1F)C(c1ccccc1)c1ccccc1
4.31 µM: HCT-15
inactive: TK-10 4.72 µM | IGROV-1 10.8 µM | UACC-257 4.82 µM | LXFL 529 3.37 µM | NCI-H226 11.4 µM | DMS-273 3.85 µM | SK-MEL-2 2.51 µM | U-251 3.74 µM | LOX IMVI 1.71 µM | HOP-92 2 µM | UO-31 12.3 µM | K562 3.7 µM | SW-620 3.83 µM | MOLT-4 1.24 µM | SR 3.41 µM | SF-268 3.11 µM | SK-MEL-28 2.72 µM | CCRF-CEM 2.31 µM | 786-0 2.42 µM | ACHN 2.56 µM | OVCAR-3 3.97 µM | SN12C 4 µM | UACC-62 2.08 µM | HL-60 3.07 µM | M14 2.62 µM | NCI-H522 2.62 µM | EKVX 11.2 µM | NCI-H23 4.22 µM | SNB-78 5.93 µM | KM12 3.95 µM | SNB-19 2.14 µM | RPMI-8226 3.53 µM | DLD-1 3.24 µM | SF-295 2.06 µM | A549 3.76 µM | KM-20L2 3.8 µM | CAKI-1 5.36 µM | SF-539 2.2 µM | SK-OV-3 2.01 µM | SNB-75 4.76 µM | XF498 1.99 µM | Malme-3M 10.8 µM | HT-29 2.75 µM | HCT-116 2.24 µM
